What is called Ki is the dissociation constant of the complex between target and ligand, obtained from inhibition or displacement.

The target in test [1] is soluble human BACE1 catalytic domain (Homo sapiens (Human), UniProt P56817). As to the kind of experiment: BACE1 HTRF FRET Assay. It is filed as biochemical. As to conditions: Ki calculated from IC50 using the Cheng-Prusoff equation; QSY7-APPswe-Eu substrate, pH 5.0. From the text:
Na^+-Acetate pH 5.0; 1% Brij-35; Glycerol; Dimethyl Sulfoxide (DMSO); Recombinant human soluble BACE1 catalytic domain (>95% pure); APP Swedish mutant peptide substrate (QSY7-APP^swe-Eu): QSY7-EISEVNLDAEFC-Europium-amide.
A homogeneous time-resolved FRET assay can be used to determine IC50 values for inhibitors of the soluble human BACE1 catalytic domain. This assay monitors the increase of 620 nm fluorescence that resulted from BACE1 cleavage of an APPswedish APP^swe mutant peptide FRET substrate (QSY7-EISEVNLDAEFC-Europium-amide). This substrate contains an N-terminal QSY7 moiety that serves as a quencher of the C-terminal Europium fluorophore (620 nm Em). In the absence of enzyme activity, 620 nm fluorescence is low in the assay and increased linearly over 3 hours in the presence of uninhibited BACE1 enzyme Inhibition of BACE1 cleavage of the QSY7-APP^swe-Eu substrate by inhibitors is manifested as a suppression of 620 nm fluorescence.
Varying concentrations of inhibitors at 3× the final desired concentration in a volume of 10 ul are preincubated with purified human BACE1 catalytic domain (3 nM in 10 μl) for 30 minutes at 30° C. in reaction buffer containing 20 mM Na-Acetate pH 5.0, 10% glycerol, 0.1% Brij-35 and 7.5% DSMO. Reactions are initiated by addition of 10 μl of 600 nM QSY7-APP^swe-Eu substrate (200 nM final) to give a final reaction volume of 30 μl in a 384 well Nunc HTRF plate. The reactions are incubated at 30° C. for 1.5 hours. The 620 nm fluorescence is then read on a Rubystar HTRF plate reader (BMG Labtechnologies) using a 50 millisecond delay followed by a 400 millisecond acquisition time window Inhibitor IC50 values are derived from non-linear regression analysis of concentration response curves. Ki values are then calculated from IC50 values using the Cheng-Prusoff equation using a previously determined […] of 8 μM for the QSY7-APP^swe-Eu substrate at BACE1.

The target in test [2] is purified human autoBACE-2 (Homo sapiens (Human), UniProt Q9Y5Z0). Nature of the test: BACE-2 Assay (BACE-HTRF assay). It is filed as biochemical. As to conditions: Ki calculated from IC50 using the Cheng-Prusoff equation; QSY7-EISEVNLDAEFC-Eu-amide substrate, pH 5.0; read-out: BACE2 Ki. Here is the method:
Inhibitor IC50s at purified human autoBACE-2 are determined in a time-resolved endpoint proteolysis assay that measures hydrolysis of the QSY7-[…]-Eu-amide FRET peptide substrate (BACE-HTRF assay). […] DMSO is present at 5% final concentration in the assay. Following laser excitation of sample wells at 320 nm, the fluorescence signal at 620 nm is collected for 400 ms following a 50 μs delay on a RUBYstar HTRF plate reader (BMG Labtechnologies). Raw RFU data is normalized to maximum (1.0 nM BACE/DMSO) and minimum (no enzyme/DMSO) RFU values. […] The Ki values are calculated from the IC50 using the Cheng-Prusoff equation.

soluble human BACE1 catalytic domain, sequence (P56817 75-416): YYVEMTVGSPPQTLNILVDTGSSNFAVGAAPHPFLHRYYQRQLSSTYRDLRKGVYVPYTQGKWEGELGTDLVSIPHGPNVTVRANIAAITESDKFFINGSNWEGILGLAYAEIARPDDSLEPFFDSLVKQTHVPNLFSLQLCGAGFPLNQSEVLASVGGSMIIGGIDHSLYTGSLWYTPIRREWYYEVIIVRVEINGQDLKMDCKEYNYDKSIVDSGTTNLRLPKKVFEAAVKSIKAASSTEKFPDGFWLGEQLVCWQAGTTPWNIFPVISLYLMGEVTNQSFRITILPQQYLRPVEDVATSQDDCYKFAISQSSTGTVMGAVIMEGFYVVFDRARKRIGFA

Consider `CN1C(=N)N[C@@]2(CCOc3ccc(NC(=O)c4ccc(Cl)cn4)cc32)CS1(=O)=O` [Example 1a], for which the Ki in test [1] was 70 nM; in test [2] it was 17 nM.

In the case of `COc1ccc(C(=O)Nc2ccc3c(c2)[C@]2(CCO3)CS(=O)(=O)N(C)C(=N)N2)nc1` [Example 1b], the results for the Ki in test [1] and in test [2] were 233 nM and 130 nM, respectively.

Consider `COCC(=O)Nc1ccc2c(c1)[C@]1(CCO2)CS(=O)(=O)N(C)C(=N)N1` [Example 1c], for which the figures for the Ki in test [1] and in test [2] were 2010 nM and 341 nM, respectively.

In the case of `CN1C(=N)N[C@@]2(CCOc3ccc(NC(=O)C(F)F)cc32)CS1(=O)=O` [Example 1d], the Ki in test [1] is 2280 nM; in test [2] it was 728 nM.

Consider `CN1C(=N)N[C@@]2(CCOc3ccc(NC(=O)c4ccc(OCF)cn4)cc32)CS1(=O)=O` [Example 2a], for which the Ki is 91 nM in test [1] and 59 nM in test [2].

As to `Cc1nc(C(=O)Nc2ccc3c(c2)[C@]2(CCO3)CS(=O)(=O)N(C)C(=N)N2)co1` [Example 2b], the Ki in test [1] is 142 nM; in test [2], 20 nM.

On to `CN1C(=N)N[C@@]2(CCOc3ccc(NC(=O)c4ccc(C#N)cn4)cc32)CS1(=O)=O` [Example 2c], for which the Ki in test [1] was 26 nM; in test [2], 51 nM.

As to `CN1C(=N)N[C@@]2(CCOc3ccc(NC(=O)c4ncc(C(F)(F)F)cn4)cc32)CS1(=O)=O` [Example 2d], the Ki in test [1] is 579 nM; in test [2], 780 nM.

As for `CN1C(=N)N[C@@]2(CCOc3ccc(NC(=O)c4ncc(Cl)cc4F)cc32)CS1(=O)=O` [Example 2e], the Ki in test [1] is 49 nM; in test [2], 9 nM.

Turning to `C#CCOc1cnc(C(=O)Nc2ccc3c(c2)[C@]2(CCO3)CS(=O)(=O)N(C)C(=N)N2)cn1` [Example 2f], the Ki in test [1] was 13 nM; in test [2], 138 nM.

With `CN1C(=N)N[C@@]2(CCOc3ccc(NC(=O)c4cnc(OCC(F)(F)F)cn4)cc32)CS1(=O)=O` [Example 2g], the values for the Ki in test [1] and in test [2] were 70 nM and 699 nM, respectively.

In the case of `C#CCOc1ccc(C(=O)Nc2ccc3c(c2)[C@]2(CCO3)CS(=O)(=O)N(C)C(=N)N2)nc1` [Example 2h], the figures for the Ki in test [1] and in test [2] were 33 nM and 313 nM, respectively.

As for `COc1cnc(C(=O)Nc2ccc3c(c2)[C@]2(CCO3)CS(=O)(=O)N(C)C(=N)N2)c(C)c1` [Example 2i], the figures for the Ki in test [1] and in test [2] were 168 nM and 29 nM, respectively.

On to `COc1cnc(C(=O)Nc2ccc3c(c2)[C@]2(CCO3)CS(=O)(=O)N(C)C(=N)N2)c(C)n1` [Example 2j], for which the results for the Ki in test [1] and in test [2] were 294 nM and 160 nM, respectively.

Consider `Cc1cc(C#N)cnc1C(=O)Nc1ccc2c(c1)[C@]1(CCO2)CS(=O)(=O)N(C)C(=N)N1` [Example 2k], for which the Ki in test [1] was 15 nM; in test [2] it was 26 nM.

Take `COc1cnc(C(=O)Nc2ccc3c(c2)[C@]2(CCO3)CS(=O)(=O)N(C)C(=N)N2)cn1` [Example 2l]: the results for the Ki in test [1] and in test [2] were 212 nM and 254 nM, respectively.

Consider `CN1C(=N)N[C@@]2(CCOc3ccc(NC(=O)c4cnc(C(F)(F)F)cn4)cc32)CS1(=O)=O` [Example 2m], for which the values for the Ki in test [1] and in test [2] were 303 nM and 1150 nM, respectively.

With `CN1C(=N)N[C@@]2(CCOc3ccc(NC(=O)c4cc5ccccn5n4)cc32)CS1(=O)=O` [Example 2n], the Ki is 1490 nM in test [1] and 337 nM in test [2].

`CN1C(=N)N[C@@]2(CCOc3ccc(NC(=O)c4ccc(C(F)(F)F)cn4)cc32)CS1(=O)=O` [Example 2o]: the Ki in test [1] is 77 nM; in test [2], 283 nM.

As to `CN1C(=N)N[C@@]2(CCOc3ccc(NC(=O)c4ccn(C(F)F)n4)cc32)CS1(=O)=O` [Example 2p], the Ki is 20 nM in test [1] and 3 nM in test [2].

On to `Cc1nc(C(=O)Nc2ccc3c(c2)[C@]2(CCO3)CS(=O)(=O)N(C)C(=N)N2)no1` [Example 2q], for which the Ki in test [1] is 367 nM; in test [2], 31 nM.

Consider `CN1C(=N)N[C@@]2(CCOc3ccc(NC(=O)c4cn5cc(C#N)ccc5n4)cc32)CS1(=O)=O` [Example 2r], for which the values for the Ki in test [1] and in test [2] were 604 nM and 6910 nM, respectively.

As for `CN1C(=N)N[C@@]2(CCOc3ccc(NC(=O)c4cnsn4)cc32)CS1(=O)=O` [Example 2s], the Ki was 240 nM in test [1] and 46 nM in test [2].

Turning to `CN1C(=N)N[C@@]2(CCOc3ccc(NC(=O)c4ccc(F)cn4)cc32)CS1(=O)=O` [Example 2t], the results for the Ki in test [1] and in test [2] were 205 nM and 31 nM, respectively.

As to `CN1C(=N)N[C@@]2(CCOc3ccc(NC(=O)c4ccc(OC(F)F)cn4)cc32)CS1(=O)=O` [Example 2u], the values for the Ki in test [1] and in test [2] were 44 nM and 166 nM, respectively.

For `CN1C(=N)N[C@@]2(CCOc3ccc(NC(=O)c4ccc(OC(F)(F)F)cn4)cc32)CS1(=O)=O` [Example 2v], the Ki is 52 nM in test [1] and 261 nM in test [2].

As for `CN1C(=N)N[C@@]2(CCOc3ccc(NC(=O)c4cnc(OCCF)cn4)cc32)CS1(=O)=O` [Example 2w], the Ki in test [1] was 229 nM; in test [2], 572 nM.

For `CN1C(=N)N[C@@]2(COCc3ccc(NC(=O)c4ccc(Cl)cn4)cc32)CS1(=O)=O` [Example 3a], the figures for the Ki in test [1] and in test [2] were 272 nM and 58 nM, respectively.

For `COc1ccc(C(=O)Nc2ccc3c(c2)[C@]2(COC3)CS(=O)(=O)N(C)C(=N)N2)nc1` [Example 3b], the Ki in test [1] is 1160 nM; in test [2], 354 nM.

As for `CN1C(=N)N[C@@]2(CCCc3ccc(NC(=O)c4ccc(Cl)cn4)cc32)CS1(=O)=O` [Example 4a], the Ki in test [1] was 58 nM; in test [2] it was 15 nM.

For the compound `COc1ccc(C(=O)Nc2ccc3c(c2)[C@]2(CCC3)CS(=O)(=O)N(C)C(=N)N2)nc1` [Example 4b], the Ki is 228 nM in test [1] and 67 nM in test [2].

`COCC(=O)Nc1ccc2c(c1)[C@]1(CCC2)CS(=O)(=O)N(C)C(=N)N1` [Example 4c]: the values for the Ki in test [1] and in test [2] were 2120 nM and 260 nM, respectively.

In the case of `CN1C(=N)N[C@@]2(CCCc3ccc(NC(=O)C(F)F)cc32)CS1(=O)=O` [Example 4d], the Ki in test [1] was 2580 nM; in test [2], 515 nM.

With `CN1C(=N)N[C@@]2(CCCc3ccc(NC(=O)c4cn5cc(C#N)ccc5n4)cc32)CS1(=O)=O` [Example 5a], the Ki in test [1] was 636 nM; in test [2], 1130 nM.

As for `CN1C(=N)N[C@@]2(CCCc3ccc(NC(=O)c4ccc(F)cn4)cc32)CS1(=O)=O` [Example 5b], the Ki in test [1] is 192 nM; in test [2] it was 28 nM.

`CN1C(=N)N[C@@]2(CCCc3ccc(NC(=O)c4ccc(OC(F)F)cn4)cc32)CS1(=O)=O` [Example 5c]: the Ki in test [1] is 59 nM; in test [2], 126 nM.

In the case of `CN1C(=N)N[C@@]2(CCCc3ccc(NC(=O)c4ccc(OC(F)(F)F)cn4)cc32)CS1(=O)=O` [Example 5d], the inhibitory constant (Ki) in test [1] was 55 nM; in test [2], 219 nM.

As to `CN1C(=N)N[C@@]2(CCCc3ccc(NC(=O)c4cnc(OCCF)cn4)cc32)CS1(=O)=O` [Example 5e], the Ki in test [1] was 257 nM; in test [2], 487 nM.

`Cc1nc(C(=O)Nc2ccc3c(c2)[C@]2(CCC3)CS(=O)(=O)N(C)C(=N)N2)no1` [Example 5f]: the Ki was 314 nM in test [1] and 16 nM in test [2].

For the compound `CN1C(=N)N[C@@]2(CCCc3ccc(NC(=O)c4ccc(OCF)cn4)cc32)CS1(=O)=O` [Example 5g], the results for the Ki in test [1] and in test [2] were 77 nM and 33 nM, respectively.

Take `Cc1nc(C(=O)Nc2ccc3c(c2)[C@]2(CCC3)CS(=O)(=O)N(C)C(=N)N2)co1` [Example 5h]: the Ki in test [1] was 108 nM; in test [2] it was 11 nM.

Regarding `CN1C(=N)N[C@@]2(CCCc3ccc(NC(=O)c4ccc(C#N)cn4)cc32)CS1(=O)=O` [Example 5i], the Ki in test [1] was 19 nM; in test [2] it was 44 nM.

Consider `CN1C(=N)N[C@@]2(CCCc3ccc(NC(=O)c4ncc(C(F)(F)F)cn4)cc32)CS1(=O)=O` [Example 5j], for which the values for the Ki in test [1] and in test [2] were 468 nM and 423 nM, respectively.

As to `CN1C(=N)N[C@@]2(CCCc3ccc(NC(=O)c4ncc(Cl)cc4F)cc32)CS1(=O)=O` [Example 5k], the Ki in test [1] was 54 nM; in test [2], 8 nM.

Source of the values: patent US9580396B2, “C6-spiro iminothiadiazine dioxides as BACE inhibitors, compositions, and their use” (Merck Sharp & Dohme Corp., priority 2012, dated 2017).
